Results reported in patent publication US20080200441A1, “ESTROGEN RECEPTOR MODULATORS ASSOCIATED PHARMACEUTICAL COMPOSITIONS AND METHODS OF USE” (University of Southern California, priority 2007, published 2008).

What was measured:
[1] = system: rat primary hippocampal neurons; experiment: Neuroprotective efficacy (NE) against glutamate-induced neurotoxicity over time; assay type: cell-based; settings: for Neuroprotective efficacy 2 hours after glutamate exposure / Neuroprotective efficacy 7.5 hours after glutamate exposure / Neuroprotective efficacy 10 minutes after glutamate exposure / Neuroprotective efficacy 5 hours after glutamate exposure: glutamate 200 μM; for time course of neuroprotection: early vs later time points after glutamate
Method: FIGS. 13A-E are graphs showing the neuroprotective efficacy of NS2 (FIG. 13A); NS1-1 (FIG. 13B); NS1-2 (FIG. 13C); NS1-3 (FIG. 13D); and NS1-4 (FIG. 13E) against glutamate-induced neurotoxicity in rat primary hippocampal neurons as a function of time and concentration (nM).
The assay for evaluating neuroprotective efficacy after glutamate exposure is discussed above. The following compounds were evaluated: NS2; NS1-1; NS1-2; NS1-3; and NS1-4. The results are shown in the Tables 4-8 and are presented graphically in FIGS. 13A-E.
Results are presented as neuroprotective efficacy (NE), which is defined as the percentage of neurotoxin-induced toxicity prevented by the test compounds (or combinations) and quantified by the equation:
NE=(Vtreatment−Vneurotoxin)/(Vcontrol−Vneurotoxin)*100%
where Vtreatment is the individual value from the test compounds (or combinations)-treated cultures, Vneurotoxin is a mean value from glutamate treated cultures, and Vcontrol is a mean value from vehicle-treated control cultures.

ERK2 = experiment: ERK phosphorylation, Western immunoblotting; settings: 10 nM, 30 min
full-length human ERα = molecular target: T1, full-length human ERα (Homo sapiens, UniProt P03372); experiment: Fluorescence polarization-based competitive binding assay, ERα
T1 sequence (P03372 1-595): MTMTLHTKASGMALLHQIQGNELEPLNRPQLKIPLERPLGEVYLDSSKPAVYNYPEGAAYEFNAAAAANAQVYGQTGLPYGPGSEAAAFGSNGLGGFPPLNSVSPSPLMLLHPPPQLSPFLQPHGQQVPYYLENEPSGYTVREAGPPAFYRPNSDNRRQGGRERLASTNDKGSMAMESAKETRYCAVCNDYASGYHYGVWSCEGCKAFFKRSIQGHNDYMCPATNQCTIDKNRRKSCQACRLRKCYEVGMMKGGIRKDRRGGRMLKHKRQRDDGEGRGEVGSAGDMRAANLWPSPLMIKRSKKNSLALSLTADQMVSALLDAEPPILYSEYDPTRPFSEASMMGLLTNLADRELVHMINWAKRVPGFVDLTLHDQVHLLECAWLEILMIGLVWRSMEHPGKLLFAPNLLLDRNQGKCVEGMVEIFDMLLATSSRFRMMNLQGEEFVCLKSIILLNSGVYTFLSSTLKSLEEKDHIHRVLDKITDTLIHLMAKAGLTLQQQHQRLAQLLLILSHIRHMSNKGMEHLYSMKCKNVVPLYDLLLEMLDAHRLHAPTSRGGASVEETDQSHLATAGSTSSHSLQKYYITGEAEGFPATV

full-length human ERβ = full-length human ERβ (Homo sapiens, UniProt Q92731); experiment: Fluorescence polarization-based competitive binding assay, ERβ
[2] = system: rat primary hippocampal neurons; experiment: Neuroprotection against glutamate-induced neurotoxicity, LDH release; assay type: cell-based
[3] = system: rat primary hippocampal neurons; experiment: Neuroprotection against glutamate-induced neurotoxicity, calcein AM staining; assay type: cell-based
Text: The combined use of Calcein AM and Ethidium Homodimer-1 (Molecular Probes, Inc., Eugene, Oreg.) provides a two-color fluorescence analysis that allows simultaneous determination of live and dead cells with two probes that measure two recognized parameters of cell viability respectively, intracellular esterase activity and plasma membrane integrity. Calcein AM is a fluorogenic esterase substrate that enters the live cells through permeability and is enzymatically hydrolyzed to form the polyanionic dye calcein, which is well retained within live cells due to the intact plasma membranes and produces an intense uniform green fluorescence at 530 nm. Ethidium homodimer is excluded from live cells and only able to enter cells through compromised plasma membranes and binds to nucleic acid by intercalating between the base pairs, producing a bright red fluorescence at 645 nm. Therefore, Calcein AM and ethidium homodimer serve as two indicators for the identification of live and dead cells respectively.
Cultures were rinsed with phosphate-buffered saline (PBS) and incubated with the combined 1 μM calcein AM and 2 μM ethidium homodimer PBS solution at room temperature for 30 min. The fluorescence intensities were measured on a SpectraMax GEMINI EM dual-wavelength-scanning microplate spectrofluometer (Molecular Devices Corp., Sunnyvale, Calif.) using appropriate excitation and emission filter combinations (485/530 nm for calcein AM and 530/645 nm for ethidium homodimer).

MCF-7 cells = experiment: MCF-7 cell proliferation, MTT; assay type: cell-based, human; settings: 3 days, serially diluted concentrations, MTT at 570 nm
spinophilin = experiment: Spinophilin expression in hippocampal neurons; settings: 100 nM, 48 h
Bcl-2 = Bcl-2 expression, Western immunoblotting; settings: 100 nM, 48 h

Sequence of full-length human ERβ (Q92731 whole entry): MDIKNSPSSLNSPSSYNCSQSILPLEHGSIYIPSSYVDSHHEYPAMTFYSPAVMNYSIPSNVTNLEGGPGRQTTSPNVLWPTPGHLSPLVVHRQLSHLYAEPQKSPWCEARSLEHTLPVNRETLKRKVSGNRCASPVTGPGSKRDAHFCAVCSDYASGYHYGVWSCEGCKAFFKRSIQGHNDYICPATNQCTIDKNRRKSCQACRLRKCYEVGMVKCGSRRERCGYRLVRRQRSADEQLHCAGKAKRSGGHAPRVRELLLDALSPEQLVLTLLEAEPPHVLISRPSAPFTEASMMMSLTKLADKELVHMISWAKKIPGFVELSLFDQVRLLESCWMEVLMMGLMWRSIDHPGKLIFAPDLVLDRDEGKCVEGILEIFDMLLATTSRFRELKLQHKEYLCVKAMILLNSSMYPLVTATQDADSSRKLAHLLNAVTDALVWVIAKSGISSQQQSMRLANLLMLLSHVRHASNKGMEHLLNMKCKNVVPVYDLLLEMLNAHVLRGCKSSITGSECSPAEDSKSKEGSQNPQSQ

Compound	Neuroprotective efficacy 2 hours after glutamate exposure ([1]; 1 nM) [%]	Neuroprotective efficacy 7.5 hours after glutamate exposure ([1]; 1 nM) [%]	Neuroprotective efficacy 2 hours after glutamate exposure ([1]; 10 nM) [%]	Neuroprotective efficacy 7.5 hours after glutamate exposure ([1]; 10 nM) [%]	Neuroprotective efficacy 2 hours after glutamate exposure ([1]; 100 nM) [%]	Neuroprotective efficacy 7.5 hours after glutamate exposure ([1]; 100 nM) [%]	Neuroprotective efficacy 2 hours after glutamate exposure ([1]; 1000 nM) [%]	Neuroprotective efficacy 7.5 hours after glutamate exposure ([1]; 1000 nM) [%]	time course of neuroprotection [1]	other results
C[C@]12CCC3c4ccc(O)cc4C[C@@H](CCCCCCCCCCCCCCCCOCc4ccccc4)C3C1CC[C@@H]2O (stereo partly drawn) [NS1-3]	15.44	8.102	55.77	28.06	87.33	51.87	78.43	53.3893	neuroprotective at early time points with diminished protection at later time points	–
C[C@]12CC[C@@H]3c4ccc(O)cc4CC[C@H]3[C@@H]1CC[C@@H]2O [17β-estradiol]	–	–	–	–	–	–	–	–	–	increase in ERK2 phosphorylation compared to vehicle (ERK2): 38.0±7.7%
C[C@]12CCC3c4ccc(O)cc4C[C@@H](CCCCCCCCCCCCCCCCO)C3C1CC[C@@H]2O (stereo partly drawn) [NS1-2]	17.5192	26.5265	51.3940	76.6877	32.3028	93.0520	24.9982	47.1665	neuroprotective at early time points and increases in magnitude at later time points	–
CC(C)CCC[C@@H](C)CCC[C@@H](C)CCC[C@H](C)CC[C@@H]1Cc2cc(O)ccc2C2CC[C@@]3(C)C(CC[C@@H]3O)C21 (stereo partly drawn) [NS1-4]	51.86	8.415	86.27	28.8	110.3902	69.76	94.3991	38.0418	neuroprotective at early time points with diminished protection at later time points	–
CC(C)=CCC/C(C)=C/CC/C(C)=C/CC1=C(c2ccc(O)cc2)C(=O)c2ccc(O)cc2C1=O [NS2]	3.937	–	30.96	–	68.16	–	73.84	–	neuroprotective at early time points and increases in magnitude at later time points	Neuroprotective efficacy 10 minutes after glutamate exposure ([1]; 1 nM): −10.3103%; Neuroprotective efficacy 5 hours after glutamate exposure ([1]; 1 nM): 24.94%; Neuroprotective efficacy 10 minutes after glutamate exposure ([1]; 10 nM): −3.6302%; Neuroprotective efficacy 5 hours after glutamate exposure ([1]; 10 nM): 44%; Neuroprotective efficacy 10 minutes after glutamate exposure ([1]; 100 nM): 33.68%; Neuroprotective efficacy 5 hours after glutamate exposure ([1]; 100 nM): 71.35%; Neuroprotective efficacy 10 minutes after glutamate exposure ([1]; 1000 nM): 40.51%; Neuroprotective efficacy 5 hours after glutamate exposure ([1]; 1000 nM): 76.45%
CC(=O)[C@H]1CC[C@H]2[C@@H]3CCC4=CC(=O)CC[C@]4(C)[C@H]3CC[C@]12C [progesterone, reference compound]	–	–	–	–	–	–	–	–	–	binding to ERα (full-length human ERα; negative control): does not bind; binding to ERβ (full-length human ERβ; negative control): does not bind
CC(C)CCC[C@@H](C)CCC[C@@H](C)CCC[C@@H]1Cc2cc(O)ccc2C2CC[C@@]3(C)C(CC[C@@H]3O)C21 (stereo partly drawn) [NS1, 7α-[(4R,8R)-4,8,12-trimethyltridecyl]estra-1,3,5-trien-3,17β-diol]	–	–	–	–	–	–	–	–	–	IC50 (full-length human ERα): 193 nM; less potency than 17β-estradiol and ICI 182,780 in neuroprotection [2]: 10 fold; increase in neuronal membrane integrity compared with glutamate alone (LDH release) ([2]; 1 nM): 38.6±3.8%; increase in neuronal membrane integrity compared with glutamate alone (LDH release) ([2]; 10 nM): 44.1±3.8%; increase in neuronal membrane integrity compared with glutamate alone (LDH release) ([2]; 100 nM): 67.0±4.0%; increase in neuronal membrane integrity compared with glutamate alone (LDH release) ([2]; 1000 nM): 59.1±3.7%; increase in neuronal metabolic viability compared with glutamate alone (calcein AM) ([3]; 1 nM): 2.7±3.2%; increase in neuronal metabolic viability compared with glutamate alone (calcein AM) ([3]; 10 nM): 9.3±3.7%; increase in neuronal metabolic viability compared with glutamate alone (calcein AM) ([3]; 100 nM): 28.4±3.2%; increase in neuronal metabolic viability compared with glutamate alone (calcein AM) ([3]; 1000 nM): 25.6±4.4%; MCF-7 cell proliferation (MCF-7 cells): does not induce MCF-7 cell proliferation; increase in spinophilin expression compared to vehicle (spinophilin): 61.7±8.2%; IC50 (full-length human ERβ; competition with EL Red): 267 nM; increase in Bcl-2 expression compared to vehicle (Bcl-2): 23.4±6.8%
CCCCCCCCCCCCCCCC[C@@H]1Cc2cc(O)ccc2C2CC[C@@]3(C)C(CC[C@@H]3O)C21 (stereo partly drawn) [NS1-1]	12.7957	–	41.8183	–	77.2530	–	70.8102	–	neuroprotective at early time points with diminished protection at later time points	Neuroprotective efficacy 5 hours after glutamate exposure ([1]; 1 nM): 3.769%; Neuroprotective efficacy 5 hours after glutamate exposure ([1]; 10 nM): 20.8614%; Neuroprotective efficacy 5 hours after glutamate exposure ([1]; 100 nM): 23.8415%; Neuroprotective efficacy 5 hours after glutamate exposure ([1]; 1000 nM): 11.9900%
